{"source": "ChEMBL document CHEMBL5678818", "about": "“Discovery of potent SOS1 inhibitors that block RAS activation via disruption of the RAS-SOS1 interaction” (Proc Natl Acad Sci U S A, 2019)", "key": {"[1]": {"molecular_target": "Phosphatidylinositol 4-kinase beta (Homo sapiens) (UniProt Q9UBF8)", "sequence (Q9UBF8 2-816 limits assumed)": "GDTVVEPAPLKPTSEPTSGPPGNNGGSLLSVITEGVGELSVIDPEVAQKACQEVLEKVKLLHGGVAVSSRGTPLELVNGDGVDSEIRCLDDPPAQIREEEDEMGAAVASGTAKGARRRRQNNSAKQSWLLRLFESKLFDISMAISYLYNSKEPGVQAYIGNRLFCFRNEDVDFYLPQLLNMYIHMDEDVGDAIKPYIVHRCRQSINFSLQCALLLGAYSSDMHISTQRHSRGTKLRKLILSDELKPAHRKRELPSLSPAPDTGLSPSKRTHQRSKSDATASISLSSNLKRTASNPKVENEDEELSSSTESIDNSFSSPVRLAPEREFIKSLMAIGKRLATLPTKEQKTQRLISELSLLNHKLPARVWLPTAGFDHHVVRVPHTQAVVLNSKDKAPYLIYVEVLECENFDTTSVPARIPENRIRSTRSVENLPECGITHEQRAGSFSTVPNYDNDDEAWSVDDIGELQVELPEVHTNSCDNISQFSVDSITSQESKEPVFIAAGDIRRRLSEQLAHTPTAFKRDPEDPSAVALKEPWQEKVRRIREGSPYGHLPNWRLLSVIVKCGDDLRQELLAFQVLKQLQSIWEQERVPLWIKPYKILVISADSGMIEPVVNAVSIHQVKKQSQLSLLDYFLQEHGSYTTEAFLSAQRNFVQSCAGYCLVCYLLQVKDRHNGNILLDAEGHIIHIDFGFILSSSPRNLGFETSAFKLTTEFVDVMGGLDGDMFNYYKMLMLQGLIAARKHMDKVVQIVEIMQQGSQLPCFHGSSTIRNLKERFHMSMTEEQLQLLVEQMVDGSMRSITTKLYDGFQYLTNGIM", "test": "Inhibition of PIK4CB (unknown origin) assessed as residual activity at 100 nM by KINOMEscan analysis relative to control"}, "[2]": {"system": "Tyrosine-protein kinase ABL1 (Homo sapiens), P00519 [F317I]", "test": "Inhibition of phosphorylated ABL1 F317I mutant (unknown origin) assessed as residual activity at 100 nM by KINOMEscan analysis relative to control"}, "[3]": {"system": "Tyrosine-protein kinase ABL1 (Homo sapiens), P00519 [Q252H]", "test": "Inhibition of phosphorylated ABL1 Q252H mutant (unknown origin) assessed as residual activity at 100 nM by KINOMEscan analysis relative to control"}, "Homo sapiens": {"organism": "Homo sapiens", "test": "Inhibition of N-terminal His10-tagged recombinant human KRAS G12C/C118S mutant (1 to 169 residues) expressed in Escherichia coli/Series S C1 sensor chip-immobilized biotinylated N-terminal His10-tagged wild-type recombinant human SOS1 catalytic domain (564 to 1049 residues) expressed in Escherichia coli protein-protein interaction at 10 uM measured for 360 secs by SPR analysis", "conditions": "time 360.0 sec"}, "[4]": {"molecular_target": "Cyclin-dependent kinase 9 (Homo sapiens) (UniProt P50750)", "sequence (P50750 whole entry)": "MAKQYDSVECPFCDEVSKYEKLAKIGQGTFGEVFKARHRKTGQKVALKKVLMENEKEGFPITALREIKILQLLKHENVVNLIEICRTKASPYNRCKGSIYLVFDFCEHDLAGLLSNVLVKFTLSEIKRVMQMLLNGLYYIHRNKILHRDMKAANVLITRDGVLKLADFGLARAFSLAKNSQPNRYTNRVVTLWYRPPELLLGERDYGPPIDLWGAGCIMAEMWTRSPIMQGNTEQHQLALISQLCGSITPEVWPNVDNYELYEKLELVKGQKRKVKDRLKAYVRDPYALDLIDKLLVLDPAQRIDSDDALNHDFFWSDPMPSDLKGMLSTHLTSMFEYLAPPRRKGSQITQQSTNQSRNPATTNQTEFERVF", "test": "Inhibition of CDK9 (unknown origin) assessed as residual activity at 100 nM by KINOMEscan analysis relative to control"}, "[5]": {"molecular_target": "T1, Cytoplasmic tyrosine-protein kinase BMX (Homo sapiens) (UniProt P51813)", "T1 sequence (whole entry)": "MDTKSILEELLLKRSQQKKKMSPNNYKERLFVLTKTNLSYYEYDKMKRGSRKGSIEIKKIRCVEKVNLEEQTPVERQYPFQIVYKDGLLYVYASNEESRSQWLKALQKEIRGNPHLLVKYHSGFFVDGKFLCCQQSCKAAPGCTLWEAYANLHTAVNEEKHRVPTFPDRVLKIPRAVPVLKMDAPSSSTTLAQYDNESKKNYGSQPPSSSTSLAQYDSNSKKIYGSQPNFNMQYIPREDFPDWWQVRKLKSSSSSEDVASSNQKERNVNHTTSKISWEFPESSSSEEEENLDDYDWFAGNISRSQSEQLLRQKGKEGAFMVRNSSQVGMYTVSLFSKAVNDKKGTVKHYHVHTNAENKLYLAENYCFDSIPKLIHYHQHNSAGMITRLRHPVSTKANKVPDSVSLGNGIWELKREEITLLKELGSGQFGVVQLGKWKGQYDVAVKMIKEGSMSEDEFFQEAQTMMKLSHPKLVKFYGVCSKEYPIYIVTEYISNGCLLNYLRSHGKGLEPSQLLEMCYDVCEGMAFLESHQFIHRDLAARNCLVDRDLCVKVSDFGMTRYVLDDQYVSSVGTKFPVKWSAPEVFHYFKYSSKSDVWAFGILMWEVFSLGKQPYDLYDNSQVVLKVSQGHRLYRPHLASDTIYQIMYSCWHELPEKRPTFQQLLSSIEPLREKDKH", "test": "Inhibition of BMX (unknown origin) assessed as residual activity at 100 nM by KINOMEscan analysis relative to control"}, "[6]": {"molecular_target": "T2, Dual specificity tyrosine-phosphorylation-regulated kinase 2 (Homo sapiens) (UniProt Q92630)", "T2 sequence (whole entry)": "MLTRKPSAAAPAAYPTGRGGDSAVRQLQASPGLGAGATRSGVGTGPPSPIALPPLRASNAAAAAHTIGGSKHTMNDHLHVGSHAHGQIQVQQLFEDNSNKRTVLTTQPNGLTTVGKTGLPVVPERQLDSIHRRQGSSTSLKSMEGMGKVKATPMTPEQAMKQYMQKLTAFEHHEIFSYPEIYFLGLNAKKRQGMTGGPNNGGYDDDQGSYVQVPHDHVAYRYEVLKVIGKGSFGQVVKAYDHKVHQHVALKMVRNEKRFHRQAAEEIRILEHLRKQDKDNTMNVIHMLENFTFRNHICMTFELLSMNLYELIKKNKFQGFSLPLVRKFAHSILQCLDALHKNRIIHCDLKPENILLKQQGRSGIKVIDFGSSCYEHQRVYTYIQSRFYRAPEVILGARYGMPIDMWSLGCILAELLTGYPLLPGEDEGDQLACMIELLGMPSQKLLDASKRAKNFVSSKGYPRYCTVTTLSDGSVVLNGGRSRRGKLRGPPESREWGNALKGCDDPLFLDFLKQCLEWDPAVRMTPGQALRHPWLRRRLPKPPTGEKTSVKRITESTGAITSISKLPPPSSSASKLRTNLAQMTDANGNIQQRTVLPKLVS", "test": "Inhibition of DYRK2 (unknown origin) assessed as residual activity at 100 nM by KINOMEscan analysis relative to control"}, "[7]": {"molecular_target": "Mast/stem cell growth factor receptor Kit (Homo sapiens) (UniProt P10721)", "sequence (P10721 whole entry)": "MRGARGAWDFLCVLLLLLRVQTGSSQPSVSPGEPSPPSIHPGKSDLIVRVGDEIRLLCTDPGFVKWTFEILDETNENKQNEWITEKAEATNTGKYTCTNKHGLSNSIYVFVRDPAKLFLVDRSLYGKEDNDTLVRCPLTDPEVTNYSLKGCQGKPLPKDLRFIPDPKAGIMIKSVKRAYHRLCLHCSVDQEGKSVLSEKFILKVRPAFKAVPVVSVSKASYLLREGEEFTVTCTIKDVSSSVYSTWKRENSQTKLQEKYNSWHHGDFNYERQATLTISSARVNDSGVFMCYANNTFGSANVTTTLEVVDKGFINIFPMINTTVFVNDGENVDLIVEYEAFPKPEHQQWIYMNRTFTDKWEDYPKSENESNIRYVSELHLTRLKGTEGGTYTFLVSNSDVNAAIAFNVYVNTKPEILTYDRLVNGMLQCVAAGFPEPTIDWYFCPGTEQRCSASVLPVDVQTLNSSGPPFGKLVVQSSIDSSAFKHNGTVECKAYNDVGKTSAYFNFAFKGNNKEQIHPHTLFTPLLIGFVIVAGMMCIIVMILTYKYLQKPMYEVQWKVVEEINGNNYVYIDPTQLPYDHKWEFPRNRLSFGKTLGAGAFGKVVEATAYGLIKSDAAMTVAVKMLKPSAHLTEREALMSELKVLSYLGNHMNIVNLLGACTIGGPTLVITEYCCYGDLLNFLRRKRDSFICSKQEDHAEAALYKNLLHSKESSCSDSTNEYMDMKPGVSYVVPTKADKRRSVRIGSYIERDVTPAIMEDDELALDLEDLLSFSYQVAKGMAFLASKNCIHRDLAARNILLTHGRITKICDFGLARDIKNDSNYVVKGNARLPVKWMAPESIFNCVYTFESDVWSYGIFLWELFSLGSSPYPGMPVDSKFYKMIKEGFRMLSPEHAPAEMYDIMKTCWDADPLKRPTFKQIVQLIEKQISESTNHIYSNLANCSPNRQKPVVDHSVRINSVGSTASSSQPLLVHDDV", "test": "Inhibition of KIT (unknown origin) assessed as residual activity at 100 nM by KINOMEscan analysis relative to control"}, "[8]": {"molecular_target": "T3, Mitogen-activated protein kinase kinase kinase 13 (Homo sapiens) (UniProt O43283)", "T3 sequence (whole entry)": "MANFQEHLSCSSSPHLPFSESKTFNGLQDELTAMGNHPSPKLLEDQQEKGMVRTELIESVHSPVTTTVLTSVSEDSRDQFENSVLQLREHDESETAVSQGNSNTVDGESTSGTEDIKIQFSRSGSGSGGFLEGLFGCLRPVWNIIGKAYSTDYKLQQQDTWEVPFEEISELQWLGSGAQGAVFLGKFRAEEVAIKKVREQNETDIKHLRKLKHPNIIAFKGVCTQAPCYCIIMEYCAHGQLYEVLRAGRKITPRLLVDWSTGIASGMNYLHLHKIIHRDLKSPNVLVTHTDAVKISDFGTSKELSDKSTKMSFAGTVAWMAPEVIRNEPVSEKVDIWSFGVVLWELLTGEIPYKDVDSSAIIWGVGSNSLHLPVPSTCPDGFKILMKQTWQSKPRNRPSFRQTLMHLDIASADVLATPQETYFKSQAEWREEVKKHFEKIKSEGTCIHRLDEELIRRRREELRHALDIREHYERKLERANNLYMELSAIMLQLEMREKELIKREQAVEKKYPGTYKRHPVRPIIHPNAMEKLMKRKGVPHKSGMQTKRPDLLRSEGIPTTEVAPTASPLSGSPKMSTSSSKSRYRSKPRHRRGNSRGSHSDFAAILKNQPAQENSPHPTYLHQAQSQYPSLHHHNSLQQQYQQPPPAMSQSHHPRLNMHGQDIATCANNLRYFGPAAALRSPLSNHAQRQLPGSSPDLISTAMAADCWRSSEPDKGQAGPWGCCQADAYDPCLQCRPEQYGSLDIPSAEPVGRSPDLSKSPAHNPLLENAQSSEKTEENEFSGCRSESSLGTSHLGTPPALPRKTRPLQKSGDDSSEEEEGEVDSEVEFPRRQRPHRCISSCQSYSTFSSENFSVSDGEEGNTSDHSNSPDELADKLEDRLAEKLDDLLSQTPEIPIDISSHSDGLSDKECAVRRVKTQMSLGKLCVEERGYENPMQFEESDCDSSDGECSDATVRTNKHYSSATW", "test": "Inhibition of LZK (unknown origin) assessed as residual activity at 100 nM by KINOMEscan analysis relative to control"}, "[9]": {"molecular_target": "Aurora kinase B (Homo sapiens) (UniProt Q96GD4)", "sequence (Q96GD4 whole entry)": "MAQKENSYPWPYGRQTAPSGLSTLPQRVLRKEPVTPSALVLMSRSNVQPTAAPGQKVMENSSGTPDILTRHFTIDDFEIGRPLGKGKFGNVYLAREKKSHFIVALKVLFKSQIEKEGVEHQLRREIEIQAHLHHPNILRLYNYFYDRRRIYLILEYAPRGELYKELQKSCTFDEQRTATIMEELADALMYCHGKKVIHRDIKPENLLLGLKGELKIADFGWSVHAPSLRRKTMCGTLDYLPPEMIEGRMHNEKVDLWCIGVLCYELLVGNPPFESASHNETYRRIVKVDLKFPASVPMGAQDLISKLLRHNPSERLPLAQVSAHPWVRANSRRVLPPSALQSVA", "test": "Inhibition of AURKB (unknown origin) assessed as residual activity at 100 nM by KINOMEscan analysis relative to control"}}, "note": "Calls of active or inactive are those of the source. The calls are words filed in the database; no cut-off is given here."}
{"smiles": "COc1cc2ncnc(N[C@H](C)c3cccc4ccccc34)c2cc1OC", "values": [{"measurement": "Activity", "setting": "[1]", "value": 83, "unit": "%"}, {"measurement": "Activity", "setting": "[2]", "value": 91, "unit": "%"}, {"measurement": "Activity", "setting": "[3]", "value": 96, "unit": "%"}, {"measurement": "Activity", "setting": "Homo sapiens", "value": "Active"}, {"measurement": "Activity", "setting": "[4]", "value": 89, "unit": "%"}, {"measurement": "Activity", "setting": "[5]", "value": 79, "unit": "%"}, {"measurement": "Activity", "setting": "[6]", "value": 80, "unit": "%"}, {"measurement": "Activity", "setting": "[7]", "value": 100, "unit": "%"}, {"measurement": "Activity", "setting": "[8]", "value": 82, "unit": "%"}, {"measurement": "Activity", "setting": "[9]", "value": 96, "unit": "%"}]}
